The results in this text go back to US6060462A, “Electrophilic peptide analogs as inhibitors of trypsin-like enzymes” (DuPont Pharmaceuticals Company, priority 1997, dated 2000).

Assay type in all cases: biochemical
For one test, the target named is human thrombin (Homo sapiens, UniProt P00734). The test can be described thus: Inhibition of thrombin hydrolysis of chromogenic substrate S2238 (Ki). The following applies: purified human thrombin, 0.10 M sodium phosphate buffer, pH 7.5, read-out: Ki values for inhibition of Serine Proteases: Trombin. Details: 0.2-0.5 nM human thrombin or human factor Xa; purchased Enzyme Research Laboratories, South Bend, Ind. The protocol:
(§1) The effectiveness of compounds of the present invention as inhibitors of blood coagulation proteases was determined using purified human proteases and synthetic substrates following procedures similar to those described in Kettner et al. (1990).
(§2) For these assays, the rate of enzymatic (thrombin, Factor Xa, and Factor VIIa) hydrolysis of chromogenic substrates (S2238 (H-D-Phe-Pip-Arg-pNA), S2222, and S2288, respectively; Kabi Pharmacia, Franklin, Ohio) was measured both in the absence and presence of compounds of the present invention. […] A decrease in the rate of absorbance change at 405 nm in the presence of inhibitor is indicative of enzyme inhibition. The results of this assay are expressed as inhibitory constant, Ki.
(§3) Thrombin and Xa determinations were made in 0.10 M sodium phosphate buffer, pH 7.5, containing 0.20 M NaCl, and 0.5% PEG 8000. VIIa determinations were made in 0.05 M tris buffer, pH 7.6, containing 0.10 M NaCl, 4 mM CaCl2, and 0.1% bovine serum albumin.
(§4) Reactions were allowed to go for 30 minutes and the velocities (rate of absorbance change vs time) were measured in the time frame of 25-30 minutes. The following relationship was used to calculate Ki values. [formula] where: vo is the velocity of the control in the absence of inhibitor;
(§5) vs is the velocity in the presence of inhibitor;
(§6) I is the concentration of inhibitor;
(§7) Ki is the dissociation constant of the enzyme: inhibitor complex;
(§8) S is the concentration of substrate;
(§9) Km is the Michaelis constant.

A further test has as its target T1, human factor VIIa (Homo sapiens, UniProt P08709).
T1 construct: 50 nM human factor VIIa (BiosPacific, Emeryville, Calif.); purchased BiosPacific, Emeryville, Calif
T1 sequence (P08709 213-466 limits assumed): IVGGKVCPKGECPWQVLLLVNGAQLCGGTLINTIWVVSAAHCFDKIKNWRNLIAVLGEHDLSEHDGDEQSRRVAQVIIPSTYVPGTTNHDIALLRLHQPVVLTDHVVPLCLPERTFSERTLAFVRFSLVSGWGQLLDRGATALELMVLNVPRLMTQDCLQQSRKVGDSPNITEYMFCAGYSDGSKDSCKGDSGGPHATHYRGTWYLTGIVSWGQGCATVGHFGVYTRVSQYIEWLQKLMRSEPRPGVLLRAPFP
T1 sequence (P08709 61-212 partner limits assumed): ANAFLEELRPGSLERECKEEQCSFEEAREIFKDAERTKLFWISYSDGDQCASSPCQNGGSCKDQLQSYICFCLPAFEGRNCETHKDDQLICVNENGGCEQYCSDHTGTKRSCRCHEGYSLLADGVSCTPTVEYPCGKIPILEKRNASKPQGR
The test can be described thus: Inhibition of Factor VIIa hydrolysis of chromogenic substrate S2288 (Ki). The following applies: purified human factor VIIa, 0.05 M tris buffer; for Ki values for inhibition of Serine Proteases: Factor VIIa: pH 7.6; for Ki: pH 7.6, read-out: Ki values for inhibition of Serine Proteases: Factor VIIa. The protocol: as §1, §2, §3, §4, §5, §6, §7, §8, §9

For another test, the target named is T2, human factor Xa (Homo sapiens, UniProt P00742).
T2 construct: 0.2-0.5 nM human thrombin or human factor Xa; purchased Enzyme Research Laboratories, South Bend, Ind
The test can be described thus: Inhibition of Factor Xa hydrolysis of chromogenic substrate S2222 (Ki). The following applies: purified human factor Xa, 0.10 M sodium phosphate buffer. The protocol:
as §1, §2, §3, §4, §5, §6, §7, §8, §9

Setting [1] is: pH 7.5, read-out: Ki values for inhibition of Serine Proteases: Factor Xa.

Counter-ions that a name gives are not always drawn. Like-named read-outs stand apart in the source and are kept apart here. Where only a bound is given, the exact number is not on record here.

T2 sequence (P00742 235-488 limits assumed): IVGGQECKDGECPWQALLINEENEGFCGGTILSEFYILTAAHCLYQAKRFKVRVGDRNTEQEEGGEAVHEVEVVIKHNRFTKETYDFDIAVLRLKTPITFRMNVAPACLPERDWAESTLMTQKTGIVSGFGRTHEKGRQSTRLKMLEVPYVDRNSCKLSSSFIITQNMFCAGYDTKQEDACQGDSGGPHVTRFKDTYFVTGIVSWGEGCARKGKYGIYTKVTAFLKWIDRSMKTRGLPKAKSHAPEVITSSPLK
T2 sequence (P00742 41-179 partner limits assumed): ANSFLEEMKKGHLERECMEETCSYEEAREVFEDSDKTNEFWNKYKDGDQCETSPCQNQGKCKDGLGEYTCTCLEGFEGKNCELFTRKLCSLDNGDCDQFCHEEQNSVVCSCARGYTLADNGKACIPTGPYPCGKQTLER

For `CN(CC(=O)NC(CCCN)B1OC2CC3CC(C3(C)C)C2(C)O1)C(=O)c1ccccc1Sc1ccccc1.Cl` (stereo not drawn) [Example 63.3.1, 2-(Thiophenyl)-Benzoyl-Sar-boroOrn-C10H16 HCl], the inhibition constant Ki on human thrombin was < 500 nM; at human factor Xa (setting [1]) it was < 50000 nM. Besides, the “Ki values for inhibition of Serine Proteases: Factor VIIa” value (“Ki values for inhibition … Factor VIIa” below) at human factor VIIa is “inactive”.
As to `CCC(CC)(CN(CC(=O)NC(CCCCN)B1OC2CC3CC(C3(C)C)C2(C)O1)C(=O)CCc1ccccc1)c1ccccc1` (stereo not drawn) [Example 54.1.3, Hydrocinnamoyl-[N-(2,2-(Diethyl)-Phenethyl)-Gly]-boroLys-C10H16 HCl], the Ki on human thrombin is < 500 nM; on human factor VIIa, < 500 nM; at human factor Xa (setting [1]), < 50000 nM.
`NCCCCC(NC(=O)CN(CCc1cccc(C(F)(F)F)c1)C(=O)CCc1ccccc1)B(O)O` (stereo not drawn) [Example 52.1.1, Hydrocinnamoyl-[N-(3-(Trifluoromethyl)-Phenethyl)-Gly]-boroLys--OH HCl]: the values for the Ki at human thrombin, at human factor VIIa and on human factor Xa (setting [1]) were < 500 nM, < 50000 nM and < 500 nM, respectively.
Regarding `CC(C)(CC(=O)O)CC(=O)N(CCc1ccccc1)CC(=O)NC(CCCCN)B1OC2CC3CC(C3(C)C)C2(C)O1` (stereo not drawn) [Example 67.1.2, Glutaryl(3,3-Dimethyl)-[N-(Phenethyl)-Gly]-boroLys-C10H16], the Ki was < 500 nM at human thrombin, < 50000 nM at human factor VIIa and < 50000 nM at human factor Xa (setting [1]).
Consider `CC(C)(CN(CC(=O)NC(CCCNC(=N)N)B(O)O)C(=O)CCc1ccccc1)c1ccccc1` (stereo not drawn) [Example 55.1.1, Hydrocinnamoyl-[N-(2,2-(Dimethyl)-Phenethyl)-Gly]-boroArg--OH HCl], for which the Ki on human thrombin, on human factor VIIa and at human factor Xa (setting [1]) was < 500 nM each time.
Turning to `COC(=O)CC(C)(C)CC(=O)N(CCc1ccccc1)CC(=O)NC(CCCCN)B1OC2CC3CC(C3(C)C)C2(C)O1` (stereo not drawn) [Example 67.1.3, Methyl Glutaryl(3,3-Dimethyl)-[N-(Phenethyl)-Gly]-boroLys-C10H16 HCl], the Ki at human thrombin is < 500 nM; at human factor VIIa it was < 50000 nM; on human factor Xa (setting [1]) it was < 500 nM.
Consider `NCCCCC(NC(=O)CN(CCc1ccccc1)C(=O)CCC(=O)O)B(O)O` (stereo not drawn) [Example 68.3.1, Succinyl-[N-(Phenethyl)-Gly]-boroLys--OH], for which the Ki at human thrombin was < 500 nM; on human factor VIIa, < 50000 nM; at human factor Xa (setting [1]), < 50000 nM.
`CN(CC(=O)NC(CCCSC(=N)N)B1OC2CC3CC(C3(C)C)C2(C)O1)C(=O)c1ccccc1Sc1ccccc1C#N` (stereo not drawn) [Example 62.1.3, (2-(2-Cyano)-Thiophenyl)-Benzoyl-Sar-boroIrg-C10H16 HBr]: the Ki on human thrombin, on human factor VIIa and on human factor Xa (setting [1]) was < 500 nM in each case.
For “Hydrocinnamoyl-[N-(N-(Methyl)-Benzyl)-Gly]-boroLys--OH HCl [Example 53.2.2]”, the Ki at human thrombin, on human factor VIIa and on human factor Xa (setting [1]) was < 500 nM each time.
Turning to `CN(CC(=O)NC(CO)CCCCNC(=O)OCc1ccccc1)C(=O)CCc1ccccc1` (stereo not drawn) [Example 61.3.2, Hydrocinnamoyl-Sar-NHCH(CH20H)(CH2)4--NH(Z)], the Ki on human thrombin is < 50000 nM. Further, the “Ki values for inhibition … Factor VIIa” value on human factor VIIa is recorded as “Inactive”. Moreover, on human factor Xa (pH 7.5), the “Ki values for inhibition of Serine Proteases: Factor Xa” value was “Inactive”.
With `CN(CC(=O)NC(CCCCSC(=N)N)B1OC2CC3CC(C3(C)C)C2(C)O1)C(=O)c1ccccc1Sc1ccccc1C#N` (stereo not drawn) [Example 62.2.2, (2-(2-Cyano)-Thiophenyl)-Benzoyl-Sar-borohomoIrg-C10H16 HBr], the inhibition constant (Ki) was < 500 nM at human thrombin, < 50000 nM at human factor VIIa and < 500 nM on human factor Xa (setting [1]).
Consider `COC(=O)CCC(=O)N(CC(=O)NC(CCCCN)B1OC2CC3CC(C3(C)C)C2(C)O1)C(=O)CCc1ccccc1` (stereo not drawn) [Example 54.3.1, Hydrocinnamoyl-[N-(Methyl Succinyl)-Gly]-boroLys-C10H16 HCl], for which the Ki on human thrombin was < 500 nM; on human factor VIIa, < 50000 nM; at human factor Xa (setting [1]), < 50000 nM.
On to “2-(Benzyl)-Benzoyl-Sar-Lys--C(=O)--NHNH2 2 HCl [Example 70.4.2]”, for which the Ki at human thrombin and on human factor Xa (setting [1]) was < 50000 nM in each case. Moreover, the “Ki values for inhibition … Factor VIIa” value on human factor VIIa is “inactive”.
For the compound `CC(C)(CN(CC(=O)NC(CCCCN)B(O)O)C(=O)CCc1ccccc1)c1ccccc1` (stereo not drawn) [Example 59.1.1, Hydrocinnamoyl-[N-(2,2-(Dimethyl)-Phenethyl)-Gly]-boroLys--OH HCl], the inhibition constant Ki at human thrombin was < 500 nM; on human factor VIIa, < 500 nM; on human factor Xa (pH 7.5, HCl, read-out: Ki values for inhibition of Serine Proteases: Factor Xa) it was < 50000 nM.
Turning to `COC(=O)CCCC(=O)N(CCc1ccccc1)CC(=O)NC(CCCCN)B1OC2CC3CC(C3(C)C)C2(C)O1` (stereo not drawn) [Example 69.4.1, Methyl Glutaryl-[N-(Phenethyl)-Gly]-boroLys-C10H16 HCl], the Ki is < 500 nM on human thrombin, < 50000 nM at human factor VIIa and < 50000 nM at human factor Xa (setting [1]).
In the case of `Cc1cc(C)cc(C(C)(C)CN(CC(=O)NC(CCCN=C(N)N)B2OC3CC4CC(C4(C)C)C3(C)O2)C(=O)CCc2ccccc2)c1` (stereo not drawn) [Example 56.3.3, Hydrocinnamoyl-{N-[2,2-(Dimethyl)-2-(3,5-dimethylphenyl)-ethyl]-Gly}-boroArg-C10H16 HCl], the Ki at human thrombin, on human factor VIIa and at human factor Xa (setting [1]) was < 500 nM each time.
On to “[3-(Trifluoromethyl)-Benzyl]-Benzoyl-Sar-boroLys-C10H16 HCl [Example 64.2.2]”, for which the Ki on human thrombin is < 500 nM; at human factor VIIa, < 50000 nM; at human factor Xa (setting [1]) it was < 500 nM.
As for `Cc1cc(C)cc(CCN(CC(=O)NC(CCCN)B2OC3CC4CC(C4(C)C)C3(C)O2)C(=O)CCc2ccccc2)c1` (stereo not drawn) [Example 60.4.1, Hydrocinnamoyl-{N-[2-(3,5-dimethylphenyl)-ethyl]-Gly}-boroOrn-C10H16 HCl], the Ki at human thrombin is < 500 nM; on human factor VIIa it was < 50000 nM; at human factor Xa (setting [1]) it was < 50000 nM.
In the case of `CN(CC(=O)NC(CCCN=[N+]=[N-])B1OC2CC3CC(C3(C)C)C2(C)O1)C(=O)c1ccccc1Sc1ccccc1C#N` (stereo not drawn) [Example 62.2.1], the Ki at human thrombin, at human factor VIIa and on human factor Xa (setting [1]) was < 50000 nM throughout.
For `Cc1cccc(CCN(CC(=O)NC(CCCCN)B2OC3CC4CC(C4(C)C)C3(C)O2)C(=O)CCC(=O)O)c1` (stereo not drawn) [Example 73.1.2, Succinyl-[N-(3-(Methyl)-Phenethyl)-Gly]-boroLys-C10H16 HCl], the Ki at human thrombin was < 500 nM; on human factor VIIa, < 50000 nM; at human factor Xa (setting [1]), < 500 nM.
Turning to `CC(=O)N(CC(=O)NC(CCCCN)B1OC2CC3CC(C3(C)C)C2(C)O1)Cc1ccccc1Cc1ccccc1` (stereo not drawn) [Example 64.1.2, Acetyl-Gly[N-(2-(Benzyl)-Benzyl)]-boroLys-C10H16 HCl], the Ki at human thrombin is < 500 nM; at human factor VIIa, < 500 nM; at human factor Xa (setting [1]), < 50000 nM.
With `CC1(C)C2CC3OB(C(CCCCN)NC(=O)CN(CCc4cccc(C(F)(F)F)c4)C(=O)CCc4ccccc4)OC3(C)C1C2` (stereo not drawn) [Example 51.1.1, Hydrocinnamoyl-[N-(3-(Trifluoromethyl)-Phenethyl)-Gly]-boroLys--C10H16 HCl], the Ki at human thrombin was < 500 nM; on human factor VIIa, < 50000 nM; on human factor Xa (setting [1]), < 500 nM.
With `CN(CC(=O)NC(CCCCN)B1OC2CC3CC(C3(C)C)C2(C)O1)C(=O)c1ccccc1Cc1cccc(Cl)c1` (stereo not drawn) [Example 64.2.3, 2-(3-chlorobenzyl)-benzoyl-Sar-Borolys C10 H16.HCl], the inhibition constant Ki on human thrombin, at human factor VIIa and at human factor Xa (setting [1]) was < 500 nM in each case.
Turning to `CC1(C)C2CC3OB(C(CCCCN)NC(=O)CN(C(=O)CCC(=O)O)C(=O)CCc4ccccc4)OC3(C)C1C2` (stereo not drawn) [Example 54.2.3, Hydrocinnamoyl-[N-(Succinyl)-Gly]-boroLys-C10H16], the inhibition constant (Ki) on human thrombin is < 500 nM; at human factor VIIa it was < 50000 nM; at human factor Xa (setting [1]), < 50000 nM.
